Source: the NIST ThermoML archive (doi:10.1021/acs.jced.8b00132)
Values joined by “and” are separate entries in the source; they are usually repeats but may differ in a detail not shown here. Equal entries are not always repeated.

O=C(C(F)(F)C(F)(F)F)C(F)(C(F)(F)F)C(F)(F)F [dodecafluoro-2-methylpentan-3-one]
Conditions	thermal conductivity
432.7 K, 49519 kPa, Liquid, transient hot wire	0.06451 W/m/K
432.71 K, 656 kPa, Gas, hot wire	0.02379 W/m/K
432.72 K, 1422 kPa, Gas, transient hot wire	0.02498 W/m/K
432.72 K, 49517 kPa, Liquid, transient hot wire	0.06454 W/m/K
432.77 K, 1418 kPa, Gas, transient hot wire	0.02496 W/m/K
432.77 K, 1419 kPa, Gas, transient hot wire	0.02504 W/m/K
432.79 K, 1709 kPa, Liquid, transient hot wire	0.03809 W/m/K
432.79 K, 34245 kPa, Liquid, transient hot wire	0.05883 W/m/K
432.8 K, 1709 kPa, Liquid, transient hot wire	0.03764 W/m/K
432.8 K, 1977 kPa, Liquid, transient hot wire	0.03806 W/m/K
432.81 K, 652 kPa, Gas, hot wire	0.02381 W/m/K
432.81 K, 655 kPa, Gas, hot wire	0.02367 W/m/K
432.81 K, 1704 kPa, Liquid, transient hot wire	0.03807 W/m/K
432.81 K, 1706 kPa, Liquid, transient hot wire	0.03761 W/m/K
432.81 K, 1977 kPa, Liquid, transient hot wire	0.03794 W/m/K
432.81 K, 22767 kPa, Liquid, transient hot wire	0.05368 W/m/K
432.82 K, 375 kPa, Gas, hot wire	0.02254 W/m/K
432.83 K, 376 kPa, Gas, hot wire	0.02257 W/m/K
432.83 K, 22777 kPa, Liquid, transient hot wire	0.05369 W/m/K
432.84 K, 2631 kPa, Liquid, transient hot wire	0.03896 W/m/K
432.84 K, 49496 kPa, Liquid, transient hot wire	0.06439 W/m/K
432.84 K, 49505 kPa, Liquid, transient hot wire	0.06438 W/m/K
432.86 K, 2631 kPa, Liquid, transient hot wire	0.03897 W/m/K
432.87 K, 158 kPa, Gas, hot wire	0.02102 W/m/K
432.87 K, 159 kPa, Gas, hot wire	0.02111 W/m/K
432.87 K, 3941 kPa, Liquid, transient hot wire	0.04063 W/m/K
432.88 K, 1297 kPa, Gas, transient hot wire	0.02344 W/m/K
432.88 K, 1298 kPa, Gas, transient hot wire	0.02358 W/m/K
432.88 K, 1418 kPa, Gas, transient hot wire	0.02521 W/m/K
432.9 K, 43 kPa, Gas, hot wire	0.02081 W/m/K
432.9 K, 650 kPa, Gas, hot wire	0.02367 W/m/K
432.91 K, 42 kPa, Gas, hot wire	0.02089 W/m/K
432.93 K, 374 kPa, Gas, hot wire	0.02268 W/m/K
432.93 K, 375 kPa, Gas, hot wire	0.02269 W/m/K
432.93 K, 1976 kPa, Liquid, transient hot wire	0.03821 W/m/K
432.93 K, 34232 kPa, Liquid, transient hot wire	0.05866 W/m/K
432.93 K, 34243 kPa, Liquid, transient hot wire	0.05865 W/m/K
432.94 K, 1977 kPa, Liquid, transient hot wire	0.03807 W/m/K
432.95 K, 1709 kPa, Liquid, transient hot wire	0.03814 W/m/K
432.98 K, 22754 kPa, Liquid, transient hot wire	0.05357 W/m/K
432.98 K, 49470 kPa, Liquid, transient hot wire	0.06431 W/m/K
432.99 K, 157 kPa, Gas, hot wire	0.02107 W/m/K and 0.02099 W/m/K
432.99 K, 1298 kPa, Gas, transient hot wire	0.02366 W/m/K
433 K, 1299 kPa, Gas, transient hot wire	0.02363 W/m/K
433 K, 6150 kPa, Liquid, transient hot wire	0.04309 W/m/K
433 K, 15091 kPa, Liquid, transient hot wire	0.04962 W/m/K
433 K, 15095 kPa, Liquid, transient hot wire	0.04957 W/m/K
433.01 K, 43 kPa, Gas, hot wire	0.02102 W/m/K and 0.02104 W/m/K
433.02 K, 647 kPa, Gas, hot wire	0.02339 W/m/K
433.02 K, 648 kPa, Gas, hot wire	0.02337 W/m/K
433.02 K, 6152 kPa, Liquid, transient hot wire	0.04303 W/m/K
433.03 K, 3941 kPa, Liquid, transient hot wire	0.04082 W/m/K
433.04 K, 373 kPa, Gas, hot wire	0.02274 W/m/K
433.04 K, 2629 kPa, Liquid, transient hot wire	0.03906 W/m/K
433.04 K, 2631 kPa, Liquid, transient hot wire	0.03946 W/m/K
433.05 K, 372 kPa, Gas, hot wire	0.02268 W/m/K
433.05 K, 3942 kPa, Liquid, transient hot wire	0.04075 W/m/K
433.08 K, 34226 kPa, Liquid, transient hot wire	0.05871 W/m/K
433.08 K, 34233 kPa, Liquid, transient hot wire	0.05874 W/m/K
433.11 K, 155 kPa, Gas, hot wire	0.02111 W/m/K
433.12 K, 156 kPa, Gas, hot wire	0.02101 W/m/K
433.12 K, 646 kPa, Gas, hot wire	0.02323 W/m/K
433.12 K, 9670 kPa, Liquid, transient hot wire	0.04595 W/m/K
433.12 K, 9671 kPa, Liquid, transient hot wire	0.04584 W/m/K
433.12 K, 49466 kPa, Liquid, transient hot wire	0.06434 W/m/K
433.13 K, 43 kPa, Gas, hot wire	0.02102 W/m/K
433.13 K, 644 kPa, Gas, hot wire	0.02306 W/m/K
433.13 K, 22732 kPa, Liquid, transient hot wire	0.05371 W/m/K
433.13 K, 22752 kPa, Liquid, transient hot wire	0.05367 W/m/K
433.13 K, 49459 kPa, Liquid, transient hot wire	0.06442 W/m/K
433.14 K, 43 kPa, Gas, hot wire	0.02099 W/m/K
433.14 K, 1300 kPa, Gas, transient hot wire	0.02391 W/m/K
433.16 K, 372 kPa, Gas, hot wire	0.02272 W/m/K and 0.02276 W/m/K
433.16 K, 15084 kPa, Liquid, transient hot wire	0.04944 W/m/K
433.19 K, 6155 kPa, Liquid, transient hot wire	0.04297 W/m/K
433.19 K, 6159 kPa, Liquid, transient hot wire	0.04336 W/m/K
433.19 K, 15094 kPa, Liquid, transient hot wire	0.04947 W/m/K
433.21 K, 1138 kPa, Gas, transient hot wire	0.02265 W/m/K and 0.02278 W/m/K
433.24 K, 155 kPa, Gas, hot wire	0.02111 W/m/K
433.24 K, 1299 kPa, Gas, transient hot wire	0.02422 W/m/K
433.24 K, 3943 kPa, Liquid, transient hot wire	0.04078 W/m/K
433.24 K, 3944 kPa, Liquid, transient hot wire	0.04039 W/m/K
433.24 K, 34207 kPa, Liquid, transient hot wire	0.05868 W/m/K
433.24 K, 34211 kPa, Liquid, transient hot wire	0.05857 W/m/K
